According to publication PMC4506092, “Utilizing Chemical Genomics to Identify Cytochrome b as a Novel Drug Target for Chagas Disease” (PLoS Pathogens, 2015):
Where two headings read alike, the source gives them in different places.

Assays:
[1] = system: T. cruzi trypomastigotes (wild-type); assay: T. cruzi trypomastigote viability assay (CellTiter-Glo), wild-type; assay type: cell-based, Trypanosoma cruzi; settings: 48-hour incubation, read-out: Trypomastigote EC50, WT
Experimental: To assess compound efficacy on trypomastigotes, parasites (30 μL; 2 × 10^6 trypomastigotes / mL) were added to 384-well plates containing 10 μL of RPMI-1640 without phenol red (Invitrogen) and supplemented with 10% FBS and 100 IU penicillin / 100 µg streptomycin per mL, and then treated with compounds (0.2% DMSO final concentration). Following a 48-hour incubation period, viability was assessed using the CellTiter-Glo Luminescent Cell Viability Assay (Promega).

[2] = system: T. b. brucei bloodstream form; assay: T. b. brucei bloodstream form in vitro efficacy assay; assay type: cell-based, Trypanosoma brucei brucei; settings: 48 hours, read-out: T. b. Brucei EC50, BSF
Experimental: Trypanosoma brucei brucei (T. b. brucei) bloodstream form (strain Lister 427) was maintained in HMI-9 medium: IMDM (Iscove's Modified Dulbecco's Media), 10% heat-inactivated FBS, 10% Serum Plus medium supplement (SAFC biosciences), 1 mM hypoxanthine, 50 μM bathocuproine disulfonate.Na2, 1.5 mM cysteine, 1 mM pyruvate, 39 μg/mL thymidine, and 0.2 mM 2-mercapthoethanol) at 37°C / 5% CO2.
For compound screening, parasites were seeded into 384-well assay plates containing HMI-9 with pre-dispensed compounds (0.25% final DMSO concentration) at a density of 6,000 cells / well, and plates were then incubated for 48 hours at 37°C / 5% CO2. Cell viability was assessed using the CellTiter-Glo Luminescent Cell Viability Assay (Promega).

P. falciparum D10attB = assay: P. falciparum SYBR Green proliferation assay, D10attB line; assay type: cell-based, Plasmodium falciparum
Experimental: GNF7686 and cytochrome b inhibitors were assayed for activity on two Plasmodium falciparum (P. falciparum) lines: D10attB and yDHODH-D10attB. The D10attB line is reliant on the coenzyme Q-dependent malarial dihydroorotate dehydrogenase (PfDHODH), whereas the yDHODH-D10attB line expresses also the fumarate-utilizing Saccharomyces cerevisiae (S. cerevisiae) DHODH, which circumvents reliance on PfDHODH and renders this line fully resistant to cytochrome b inhibitors. The use of these two lines allows for distinction of selection of potent cytochrome b inhibitors as described in detail in the Results section. Growth and viability of P. falciparum cell lines (in the presence or absence of drug) in infected erythrocytes were assessed using a SYBR Green-based proliferation assay exactly as described previously.

[3] = system: L. donovani promastigotes; assay: Leishmania donovani promastigote proliferation assay; assay type: cell-based
[4] = system: T. cruzi epimastigotes (wild-type); assay: T. cruzi epimastigote growth assay (CellTiter-Glo), wild-type; assay type: cell-based, Trypanosoma cruzi; settings: for EC50: wild-type T. cruzi, seven days, read-out: Epimastigote EC50, WT
Experimental: To determine compound activity on the T. cruzi epimastigote form, epimastigotes (20 μL; 2.5 × 10^5 parasites / mL) were added to 384-well assay plates containing 20 μL of LIT media with pre-dispensed compounds (0.2% DMSO final concentration) and incubated for seven days at 26°C / 0% CO2. Parasite viability was assessed at the end of this incubation period using the CellTiter-Glo Luminescent Cell Viability Assay (Promega). Luminescence as a measure of parasite viability was measured on the EnVision plate reader.

T. b. brucei procyclics = assay: T. b. brucei procyclic form in vitro efficacy assay; assay type: cell-based, Trypanosoma brucei brucei; settings: 72 hours
Experimental: For conversion from the bloodstream form to the procyclic form, bloodstream form parasites were transferred from HMI-9 medium to Differentiating Trypanosome Medium (DTM, pH = 7.2), consisting of: 6.8 g / L NaCl, 400 mg / L KCl, 200 mg / L CaCl2, 140 mg / L NaH2PO4.H2O, 200 mg / L MgSO4.7H2O, 7.94 g / L HEPES, 2.2 g / L NaHCO3, 110 mg / L sodium pyruvate, 10 mg / L phenol red, 14 mg / L hypoxanthine, 1 mg / L biotin, 760 mg / L glycerol, 640 mg / L proline, 236 mg / L glutamic acid, 1.34 g / L glutamine, 7.5 mg / L hemin (in 50 mM sodium hydroxide), 1X MEM amino acid solution (Invitrogen),1X MEM non-essential amino acids solution (Invitrogen), 28.2 mg / L bathocuproine disulfonate.Na2, 182 mg/L cysteine, 0.2 mM 2-mercaptoethanol, 15% heat-inactivated FBS, and 5 mM sodium citrate and cis-aconitate. Following medium exchange, parasites were incubated at a lower temperature (27°C / 5% CO2), monitored for change in morphology to procyclic parasites, and sub-cultured for long-term cultivation.
For compound screening, 20 μliters (5,000 parasites) of T. b. brucei procyclic culture were added to 384-well plate wells filled with 20 μliters of DTM medium and pre-dispensed compounds (0.25% final DMSO concentration). Plates were then incubated for 72 hours at 27°C / 5% CO2. Cell viability was assessed using the CellTiter-Glo Luminescent Cell Viability Assay (Promega).

NIH/3T3 fibroblast cells = assay: Mammalian cell cytotoxicity assay (CellTiter-Glo); assay type: cell-based, mouse; settings: for Toxicity on the host 3T3 cells (in words): host cells of the intracellular amastigote assay, prevented determination of amastigote EC50
Experimental: NIH/3T3 fibroblast cells were maintained in RPMI-1640 medium supplemented with 10% heat-inactivated FBS and 100 IU penicillin / 100 μg streptomycin per mL at 37°C / 5% CO2. For compound screening, cells were diluted to 4 × 10^4 cells / mL in assay medium (RPMI-1640, 5% FBS, and 100 IU penicillin / 100 μg streptomycin per mL) and seeded at 50 μL / well into 384-well plates. Following overnight incubation, compounds were added to each well (0.2% DMSO final concentration) and plates were further incubated for 96 hours. Cell viability was assessed using the CellTiter-Glo Luminescent Cell Viability Assay (Promega). Measured luminescence values were normalized to the value obtained for 0.2% DMSO, and plotted against the corresponding compound concentration for half maximal cytotoxic concentration (CC50) value determination.

[5] = Plasmodium falciparum; read-out: P. falciparum EC50, D10attB

SMILES	EC50 ([1]; Trypanosoma cruzi)	EC50 ([2]; Trypanosoma brucei)	EC50 (P. falciparum D10attB; [5])	EC50 ([3]; Leishmania donovani)	EC50 ([4]; Trypanosoma cruzi, 168 h)	EC50 (T. b. brucei procyclics; Trypanosoma brucei)	Toxicity on the host 3T3 cells (in words) (NIH/3T3 fibroblast cells)	EC50 [1]	EC50 [2]	EC50 (P. falciparum D10attB; read-out: P. falciparum EC50, D10attB)	EC50 [3]	EC50 [4]	EC50 (T. b. brucei procyclics)	EC50 (P. falciparum D10attB; Plasmodium falciparum, read-out: P. falciparum EC50, D10attB)	Mammalian cell proliferation: no effect observed up to (NIH/3T3 fibroblast cells; mouse)	EC20 value on T. cruzi epimastigotes ([4]; starting concentration of resistance selection)
O=C(Cn1ccnc1[N+](=O)[O-])NCc1ccccc1 [Benznidazole]	13000 ± 1800 nM	> 25000 nM	> 12500 nM	> 25000 nM	5500 ± 150 nM	> 25000 nM										
CO/C(=C/C(N)=O)[C@H](C)[C@H](/C=C/c1csc(-c2csc([C@@H](C)/C=C/C=C/C(C)C)n2)n1)OC [Myxothiazol]							toxicity	2900 ± 480 nM	17200 ± 3100 nM	300 ± 10 nM	3100 ± 450 nM	490 ± 50 nM	2500 ± 220 nM			
CCCCCC[C@H]1C(=O)O[C@H](C)[C@H](NC(=O)c2cccc(NC=O)c2O)C(=O)O[C@@H](C)[C@@H]1OC(=O)CC(C)C [Antimycin A]	200 ± 40 nM	> 25000 nM		10 ± 3 nM	46 ± 10 nM	30 ± 2 nM	toxicity							700 ± 340 nM		
CO\C=C(C(=O)OC)/C(C)=C\C=C\c1ccccc1 [Strobilurin]	1700 ± 410 nM	> 25000 nM	460 ± 270 nM	4300 ± 820 nM	590 ± 130 nM	3200 ± 330 nM	toxicity									
CCc1c(C)c(C#N)c2nc3ccccc3n2c1O [GNF7686]	710 ± 160 nM	> 25000 nM	> 12500 nM	460 ± 120 nM	160 ± 20 nM	590 ± 90 nM									> 25 µM	10 nM
